Test results taken from patent US8791113B2, “2,4-diaryl-substituted [1,8] naphthyridines as kinase inhibitors for use against cancer” (Merck Patent GmbH, priority 2010, dated 2014).
Counter-ions that a name gives are not always drawn. Like-named read-outs stand apart in the source and are kept apart here.

Legend:
[1] = system: TGF-beta-induced phosphorylation of Smad2 (Ser465/467) and Smad3 (Ser423/425) in Mv1-Lu cells; assay: Inhibition of Smad2/3 phosphorylation in Mv1Lu cells (PathScan Phospho-Smad2 ELISA); format: cell-based, mink Mustela vison; settings: Neogale vison, read-out: TβR activity (Example 51)
Protocol: Inhibition of Smad2/3 Phosphorylation in Mv1 Lu Cells by TGF-Beta Receptor I Kinase Inhibitors
This assay was used to determine the inhibitory potency of compounds on TGF-beta-induced phosphorylation of Smad2 (Ser465/467) and Smad3 (Ser423/425). Mv1-Lu cells (lung epithelial cell line from mink Mustela vison; ATCC number: CCL-64) were seeded in DMEM (Invitrogen) supplemented with 10% fetal bovine serum (Pan Biotech) at a defined cell density in 24-well or 96-well plates (24-well plate: 1.5×10^5 cells per well; 96-well plate: 4×10^4 cells per well). Cell cultures were incubated in DMEM at 37° C. and 10% CO2. On the next day, the medium was replaced and cells were serum-starved for 16-20 hours. The following day, serial dilutions of compounds were added to the wells, pre-incubated for 1.5 hrs before recombinant TGF-beta 1 ligand (final concentration 5 ng/ml; R&D systems) was added. After one hour of ligand stimulation, lysates were prepared and analyzed using an enzyme-linked immunosorbent assay kit (PathScan Phospho-Smad2 Kit, Cell Signaling Technologies). The ELISA detects phosphorylated Smad2 as well as phosphorylated Smad3 with the phospho-specific antibody. TGF-beta stimulated cells and unstimulated cells served as positive and negative controls (100% and background control). The concentration of the vehicle DMSO was kept constant at 0.2% (v/v) in all wells. Dose-response relationships were fitted using curve fitting algorithms of the RS1 statistics software package (Brooks Automation Inc. RS/1- Statistical Tools Handbook. Release 6.2) to determine the concentration at which half-maximal inhibition (IC50) of Smad2/3 phosphorylation was achieved.

[2] = target: T1, GST-ALK5 (TGF-beta receptor kinase) (Homo sapiens, UniProt P36897); assay: In-vitro (enzyme) kinase flashplate assay: GST-ALK5 phosphorylation of GST-SMAD2 with 33P-ATP; format: biochemical; settings: 384-well flashplate kinase assay, GST-ALK5 / GST-SMAD2, 33P-ATP, 30° C., 45 min; read-out: TβR activity (Example 50)
T1 sequence (P36897 34-503): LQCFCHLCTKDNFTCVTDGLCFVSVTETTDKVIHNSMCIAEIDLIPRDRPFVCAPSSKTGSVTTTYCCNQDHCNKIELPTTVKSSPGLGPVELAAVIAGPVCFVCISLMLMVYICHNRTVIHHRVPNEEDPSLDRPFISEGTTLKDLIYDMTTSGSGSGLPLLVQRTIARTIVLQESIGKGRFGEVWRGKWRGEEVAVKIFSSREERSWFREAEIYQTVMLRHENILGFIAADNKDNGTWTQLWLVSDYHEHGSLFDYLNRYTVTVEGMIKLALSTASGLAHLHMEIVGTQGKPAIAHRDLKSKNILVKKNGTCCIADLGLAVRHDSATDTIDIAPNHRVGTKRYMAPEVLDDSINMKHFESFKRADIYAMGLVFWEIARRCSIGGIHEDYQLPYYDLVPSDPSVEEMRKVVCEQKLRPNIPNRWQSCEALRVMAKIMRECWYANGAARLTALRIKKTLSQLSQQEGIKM
Protocol: In-vitro (Enzyme) Assay for Determination of the Efficacy of Inhibitors of the Inhibition of TGF-Beta-Mediated Effects
The kinase assay was carried out as 384-well flashplate assay. 31.2 nM of GST-ALK5, 439 nM of GST-SMAD2 and 3 mM of ATP (with 0.3 μCi of ^33P-ATP/well) were incubated in a total volume of 35 μl (20 mM of HEPES, 10 mM of MgCl2, 5 mM of MnCl2, 1 mM of DTT, 0.1% of BSA, pH 7.4) without or with test substance (5-10 concentrations) at 30° C. for 45 min. The reaction was stopped using 25 μl of 200 mM EDTA solution, filtered with suction at room temperature after 30 min, and the wells were washed with 3 times 100 μl of 0.9% NaCl solution. Radioactivity was measured in the TopCount. The IC50 values were calculated using RS1.

[3] = Mv1-Lu cells, TGF-beta 1 5 ng/ml, Phospho-Smad2/3 ELISA

Structure (SMILES)	IC50 [1, 3] [µM]	IC50 [2] [µM]	IC50 [1] [µM]
COCC(=O)Nc1nccc2c(-c3cc(-c4ccccc4F)nc4ncccc34)nccc12 [Compound 73, N-{5-[2-(2-Fluoro-phenyl)-[1,8]naphthyridin-4-yl]-[2,6]naphthyridin-1-yl}-2-methoxy-acetamide]	1 to 10	1 to 10	–
CCN(CC)CCn1cc(-c2cc(-c3cc(Cl)ccc3F)nc3ncccc23)c2ccncc2c1=O [Compound 104, 4-[2-(5-Chloro-2-fluoro-phenyl)-[1,8]naphthyridin-4-yl]-2-(2-diethylamino-ethyl)-2H-[2,7]naphthyridin-1-one]	1 to 10	1 to 10	–
Nc1nccc2c(-c3cc(-c4c(F)cccc4F)nc4ncccc34)nccc12 [Compound 109, 5-[2-(2,6-Difluoro-phenyl)-[1,8]naphthyridin-4-yl]-[2,6]naphthyridin-1-ylamine]	> 10	< 1	–
Nc1nccc2c(-c3cc(-c4cc(F)ccc4F)nc4ncccc34)nccc12 [Compound 20, 5-[2-(2,5-Difluoro-phenyl)-[1,8]naphthyridin-4-yl]-[2,6]naphthyridin-1-ylamine hydrochloride]	–	< 1	< 1
CN(C)CC(=O)Nc1nccc2c(-c3cc(-c4ccccc4F)nc4ncccc34)nccc12 [Compound 71, 2-Dimethylamino-N-{5-[2-(2-fluoro-phenyl)-[1,8]naphthyridin-4-yl]-[2,6]naphthyridin-1-yl}-acetamide]	1 to 10	1 to 10	–
COc1nccc2c(-c3cc(-c4ccccc4F)nc4ncccc34)nccc12 [Compound 40, 2-(2-Fluoro-phenyl)-4-(5-methoxy-[2,6]naphthyridin-1-yl)-[1,8]naphthyridine]	> 10	> 10	–
Fc1ccc(Cl)cc1-c1cc(-c2ncnc3cnccc23)c2cccnc2n1 [Compound 24, 4-[2-(5-Chloro-2-fluoro-phenyl)-[1,8]naphthyridin-4-yl]-pyrido[3,4-d]pyrimidine]	1 to 10	< 1	–
Cc1cccc(-c2cc(-c3nccc4c(N)nccc34)c3cccnc3n2)n1 [Compound 21, 5-[2-(6-Methyl-pyridin-2-yl)-[1,8]naphthyridin-4-yl]-[2,6]naphthyridin-1-ylamine hydrochloride]	–	< 1	< 1
Cn1cc(-c2cnc3nc(-c4ccccc4F)cc(-c4nccc5c(N)nccc45)c3c2)cn1 [Compound 116, 5-[2-(2-Fluoro-phenyl)-6-(1-methyl-1H-pyrazol-4-yl)-[1,8]naphthyridin-4-yl]-[2,6]naphthyridin-1-ylamine]	> 10	> 10	–
Fc1ccc(Cl)cc1-c1cc(-c2c[nH]c3cnccc23)c2cccnc2n1 [Compound 1, 2-(5-Chloro-2-fluoro-phenyl)-4-(1H-pyrrolo[2,3-c]pyridin-3-yl)-[1,8]naphthyridine]	< 1	< 1	–
Nc1ccc2c(-c3cccc4c(N)nccc34)cc(-c3ccccc3F)nc2n1 [Compound 117, 5-(1-Amino-isoquinolin-5-yl)-7-(2-fluoro-phenyl)-[1,8]naphthyridin-2-ylamine]	< 1	< 1	–
Nc1ccc(-c2cc(-c3cc(F)ccc3F)nc3ncccc23)c2ccncc12 [Compound 38, 5-[2-(2,5-Difluoro-phenyl)-[1,8]naphthyridin-4-yl]-isoquinolin-8-ylamine]	< 1	< 1	–
Nc1ccc(-c2cc(-c3cc(Cl)ccc3F)nc3ncccc23)c2ccncc12 [Compound 22, 5-[2-(5-Chloro-2-fluoro-phenyl)-[1,8]naphthyridin-4-yl]-isoquinolin-8-ylamine hydrochloride]	–	< 1	< 1
Cc1cccc(-c2cc(-c3nccc4cnccc34)c3cccnc3n2)n1 [Compound 7, 2-(6-Methyl-pyridin-2-yl)-4-[2,6]naphthyridin-1-yl-[1,8]naphthyridine]	1 to 10	< 1	–
CCN(CC)CCNc1ccc(-c2cc(-c3cc(Cl)ccc3F)nc3ncccc23)c2ccncc12 [Compound 92, N′-{5-[2-(5-Chloro-2-fluoro-phenyl)-[1,8]naphthyridin-4-yl]-isoquinolin-8-yl}-N,N-diethyl-ethane-1,2-diamine]	< 1	< 1	–

Now from value to compound, other results behind:

IC50 [1, 3] [µM]	IC50 [2] [µM]	Structure (SMILES)	IC50 [1] [µM]
< 1	< 1	O=c1[nH]cc(-c2cc(-c3cc(Cl)ccc3F)nc3ncccc23)c2ccncc12 [Compound 89, 4-[2-(5-Chloro-2-fluoro-phenyl)-[1,8]naphthyridin-4-yl]-2H-[2,7]naphthyridin-1-one]	–
< 1	< 1	Nc1nccc2c(-c3cc(-c4ccccc4F)nc4ncccc34)nccc12 [Compound 14, 5-[2-(2-Fluoro-phenyl)-[1,8]naphthyridin-4-yl]-[2,6]naphthyridin-1-ylamine]	–
< 1	< 1	Nc1nccc2c(-c3cc(-c4ccccc4F)nc4ncccc34)ccnc12 [Compound 113, 4-[2-(2-Fluoro-phenyl)-[1,8]naphthyridin-4-yl]-[1,7]naphthyridin-8-ylamine]	–
< 1	< 1	c1coc(-c2cc(-c3c[nH]c4cnccc34)c3cccnc3n2)c1 [Compound 101, 2-Furan-2-yl-4-(1H-pyrrolo[2,3-c]pyridin-3-yl)-[1,8]naphthyridine]	–
< 1	1 to 10	Cn1cc(-c2ccc(-c3cc(-c4ccccc4F)nc4ncccc34)c3cnccc23)cn1 [Compound 64, 2-(2-Fluoro-phenyl)-4-[5-(1-methyl-1H-pyrazol-4-yl)-isoquinolin-8-yl]-[1,8]naphthyridine]	–
< 1	< 1	COc1cnc(-c2cc(-c3ccccc3F)nc3ncccc23)c2ccncc12 [Compound 115, 2-(2-Fluoro-phenyl)-4-(4-methoxy-[2,6]naphthyridin-1-yl)-[1,8]naphthyridine]	–
< 1	< 1	Nc1nccc2c(-c3cc(-c4cc(Cl)ccc4F)nc4ncccc34)nccc12 [Compound 11, 5-[2-(5-Chloro-2-fluoro-phenyl)-[1,8]naphthyridin-4-yl]-[2,6]naphthyridin-1-ylamine]	–
< 1	< 1	Fc1ccc(Cl)cc1-c1cc(-c2ccc(Cl)c3cnccc23)c2cccnc2n1 [Compound 83, 2-(5-Chloro-2-fluoro-phenyl)-4-(8-chloro-isoquinolin-5-yl)-[1,8]naphthyridine]	–
< 1	< 1	Fc1ccc(Cl)cc1-c1cc(-c2coc3cnccc23)c2cccnc2n1 [Compound 12, 2-(5-Chloro-2-fluoro-phenyl)-4-furo[2,3-c]pyridin-3-yl-[1,8]naphthyridine]	–
< 1	< 1	Nc1cc2cnccc2c(-c2cc(-c3ccccc3F)nc3ncccc23)n1 [Compound 66, 1-[2-(2-Fluoro-phenyl)-[1,8]naphthyridin-4-yl]-[2,6]naphthyridin-3-ylamine]	–
< 1	< 1	Cc1ccc(-c2cc(-c3nccc4c(N)nccc34)c3cccnc3n2)o1 [Compound 84, 5-[2-(5-Methyl-furan-2-yl)-[1,8]naphthyridin-4-yl]-[2,6]naphthyridin-1-ylamine]	–
< 1	< 1	Fc1ccc(Cl)cc1-c1cc(-c2cc(OCCN3CCOCC3)nc3cnccc23)c2cccnc2n1 [Compound 112, 4-[2-(5-Chloro-2-fluoro-phenyl)-[1,8]naphthyridin-4-yl]-2-(2-morpholin-4-yl-ethoxy)-[1,7]naphthyridine]	–
